Results: PubChem BioAssay (NCI)
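Results reflect a 48-hour exposure of cells in 96-well plates to compound at five concentrations. GI50 = concentration required for 50% inhibition of growth. TGI is the concentration that stops growth completely.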

Assays:
Experiment in all cases: DTP human tumour cell line panel, 48 h
MDA-MB-231 breast = system: MDA-MB-231 breast
SK-MEL-5 melanoma = system: SK-MEL-5 melanoma
SK-MEL-2 melanoma = system: SK-MEL-2 melanoma
NCI-H460 lung = system: NCI-H460 lung
LOX IMVI melanoma = system: LOX IMVI melanoma
PC-3 prostate = system: PC-3 prostate
SR leukemia = system: SR leukemia
NCI-H522 lung = system: NCI-H522 lung
NCI/ADR-RES ovarian = system: NCI/ADR-RES ovarian
UACC-62 melanoma = system: UACC-62 melanoma
HS 578T breast = system: HS 578T breast
HCT-15 colon = system: HCT-15 colon
HOP-92 NSCLC = system: HOP-92 NSCLC
MCF7 breast = system: MCF7 breast
RXF 393 renal = system: RXF 393 renal
HL-60(TB) leukemia = system: HL-60(TB) leukemia
MALME-3M melanoma = system: MALME-3M melanoma
MDA-MB-435 = system: MDA-MB-435
SK-MEL-28 melanoma = system: SK-MEL-28 melanoma
SNB-19 CNS = system: SNB-19 CNS
A549 NSCLC = system: A549 NSCLC
COLO 205 colon = system: COLO 205 colon
BT-549 breast = system: BT-549 breast
HCT-116 colon = system: HCT-116 colon
T-47D breast = system: T-47D breast
TK-10 renal = system: TK-10 renal
A498 renal = system: A498 renal
SW-620 colon = system: SW-620 colon
HCC-2998 colon = system: HCC-2998 colon
HOP-62 NSCLC = system: HOP-62 NSCLC
SF-268 CNS = system: SF-268 CNS
NCI-H226 lung = system: NCI-H226 lung
U251 CNS = system: U251 CNS
SK-OV-3 ovarian = system: SK-OV-3 ovarian
SF-539 CNS = system: SF-539 CNS
EKVX NSCLC = system: EKVX NSCLC
UACC-257 melanoma = system: UACC-257 melanoma
OVCAR-8 ovarian = system: OVCAR-8 ovarian
SF-295 CNS = system: SF-295 CNS
ACHN renal = system: ACHN renal
RPMI-8226 leukemia = system: RPMI-8226 leukemia
786-0 renal = system: 786-0 renal
CCRF-CEM leukemia = system: CCRF-CEM leukemia
HT29 colon = system: HT29 colon
MOLT-4 leukemia = system: MOLT-4 leukemia
OVCAR-5 ovarian = system: OVCAR-5 ovarian
KM12 colon = system: KM12 colon
CAKI-1 renal = system: CAKI-1 renal
UO-31 renal = system: UO-31 renal
SNB-75 CNS = system: SNB-75 CNS
K-562 leukemia = system: K-562 leukemia
M14 melanoma = system: M14 melanoma
OVCAR-4 ovarian = system: OVCAR-4 ovarian
NCI-H23 lung = system: NCI-H23 lung
IGROV1 ovarian = system: IGROV1 ovarian
SN12C renal = system: SN12C renal
DU-145 prostate = system: DU-145 prostate

## C#Cc1nc(/C=C/C(=O)c2nccn2C)cs1
MDA-MB-231 breast
  GI50: 708 nM
  TGI: 1500 nM
SK-MEL-5 melanoma
  GI50: 1040 nM
  TGI: 2320 nM
SK-MEL-2 melanoma
  GI50: 909 nM
  TGI: 2060 nM
NCI-H460 lung
  GI50: 898 nM
  TGI: 2100 nM
LOX IMVI melanoma
  GI50: 22.9 nM
  TGI: 49.9 nM
PC-3 prostate
  GI50: 778 nM
  TGI: 1690 nM
SR leukemia
  GI50: 125 nM
  TGI: 471 nM
NCI-H522 lung
  GI50: 566 nM
  TGI: 1370 nM
NCI/ADR-RES ovarian
  GI50: 723 nM
  TGI: 2700 nM
UACC-62 melanoma
  GI50: 715 nM
  TGI: 1460 nM
HS 578T breast
  GI50: 1040 nM
  TGI: 3130 nM
HCT-15 colon
  GI50: 510 nM
  TGI: 1310 nM
HOP-92 NSCLC
  GI50: 1050 nM
  TGI: 1880 nM
MCF7 breast
  GI50: 537 nM
  TGI: 1940 nM
RXF 393 renal
  GI50: 502 nM
  TGI: 1390 nM
HL-60(TB) leukemia
  GI50: 167 nM
  TGI: 645 nM
MALME-3M melanoma
  GI50: 893 nM
  TGI: 1830 nM
MDA-MB-435
  GI50: 976 nM
  TGI: 2820 nM
SK-MEL-28 melanoma
  GI50: 915 nM
  TGI: 2040 nM
SNB-19 CNS
  GI50: 812 nM
  TGI: 1550 nM
A549 NSCLC
  GI50: 1110 nM
  TGI: 3060 nM
COLO 205 colon
  GI50: 815 nM
  TGI: 1730 nM
BT-549 breast
  GI50: 815 nM
  TGI: 1530 nM
HCT-116 colon
  GI50: 456 nM
  TGI: 1220 nM
T-47D breast
  GI50: 229 nM
  TGI: 1380 nM
TK-10 renal
  GI50: 1170 nM
  TGI: 2120 nM
A498 renal
  GI50: 780 nM
  TGI: 1520 nM
SW-620 colon
  GI50: 607 nM
  TGI: 1400 nM
HCC-2998 colon
  GI50: 880 nM
  TGI: 1620 nM
HOP-62 NSCLC
  GI50: 1050 nM
  TGI: 1960 nM
SF-268 CNS
  GI50: 813 nM
  TGI: 1830 nM
NCI-H226 lung
  GI50: 1490 nM
  TGI: 9130 nM
U251 CNS
  GI50: 775 nM
  TGI: 1540 nM
SK-OV-3 ovarian
  GI50: 1180 nM
  TGI: 2440 nM
SF-539 CNS
  GI50: 748 nM
  TGI: 1470 nM
EKVX NSCLC
  GI50: 964 nM
  TGI: 1960 nM
UACC-257 melanoma
  GI50: 732 nM
  TGI: 1610 nM
OVCAR-8 ovarian
  GI50: 1160 nM
  TGI: 4360 nM
SF-295 CNS
  GI50: 961 nM
  TGI: 1870 nM
ACHN renal
  GI50: 291 nM
  TGI: 794 nM
RPMI-8226 leukemia
  GI50: 205 nM
  TGI: 894 nM
786-0 renal
  GI50: 262 nM
  TGI: 623 nM
CCRF-CEM leukemia
  GI50: 149 nM
  TGI: 566 nM
HT29 colon
  GI50: 837 nM
  TGI: 1700 nM
MOLT-4 leukemia
  GI50: 859 nM
  TGI: 2500 nM
OVCAR-5 ovarian
  GI50: 859 nM
  TGI: 1600 nM
KM12 colon
  GI50: 498 nM
  TGI: 1200 nM
CAKI-1 renal
  GI50: 735 nM
  TGI: 1480 nM
UO-31 renal
  GI50: 132 nM
  TGI: 355 nM
SNB-75 CNS
  GI50: 668 nM
  TGI: 1360 nM
K-562 leukemia
  GI50: 377 nM
  TGI: 2260 nM
M14 melanoma
  GI50: 845 nM
  TGI: 1980 nM
OVCAR-4 ovarian
  GI50: 1000 nM
  TGI: 2340 nM
NCI-H23 lung
  GI50: 798 nM
  TGI: 1720 nM
IGROV1 ovarian
  GI50: 105 nM
  TGI: 215 nM
SN12C renal
  GI50: 797 nM
  TGI: 1700 nM
DU-145 prostate
  GI50: 583 nM
  TGI: 1280 nM
